Laboratory results reported in the supplement of paper PMC10307832.

Experiments:
Assay in all cases: relative viability (nuclei count vs DMSO), 5 days (fraction); higher = more cells survive
[1] = compound: CC1=C(C(=O)N2C=CSC2=N1)CCN3CCC(=C(C4=CC=CC=C4)C5=CC=C(C=C5)F)CC3 + O=C(CCCCCCC(=O)Nc1ccccc1)NO [Vorinostat] (partner 1 µM)
In short: (§1)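 Relative viability was taken as the ratio of nuclei in treated wells to nuclei in vehicle wells. Lung cancer cell lines in 1536-well plates received compounds by pin tool one day after seeding, either one drug alone or a fixed anchor-drug dose plus five library-drug doses (not always all listed) in √10 steps. Nuclei were counted on 4× images after 5 days of treatment, and values are medians of duplicate plates.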

[2] = compound: CC1=C(C(=O)N2C=CSC2=N1)CCN3CCC(=C(C4=CC=CC=C4)C5=CC=C(C=C5)F)CC3 + C[C@]1(O)C[C@@H](c2nc(-c3ccc4ccc(-c5ccccc5)nc4c3)c3c(N)nccn32)C1 [Linsitinib] (partner 1 µM)
In short: as §1

[3] = compound: CC1=C(C(=O)N2C=CSC2=N1)CCN3CCC(=C(C4=CC=CC=C4)C5=CC=C(C=C5)F)CC3 + CC1(C)CCC(c2ccc(Cl)cc2)=C(CN2CCN(c3ccc(C(=O)NS(=O)(=O)c4ccc(N[C@H](CCN5CCOCC5)CSc5ccccc5)c(S(=O)(=O)C(F)(F)F)c4)cc3)CC2)C1 [Navitoclax] (partner 0.5 µM)
In short: as §1

[4] = compound: CC1=C(C(=O)N2C=CSC2=N1)CCN3CCC(=C(C4=CC=CC=C4)C5=CC=C(C=C5)F)CC3 + Cc1nc(NC(=O)N2CCC[C@H]2C(N)=O)sc1-c1ccnc(C(C)(C)C(F)(F)F)c1 [Alpelisib] (partner 2 µM)
In short: as §1

Cell Line: NCI-H1793
- relative viability ([1]; first compound 0.08 µM): 0.599
- relative viability ([1]; first compound 0.253 µM): 0.988
- relative viability ([1]; first compound 0.8 µM): 0.577
- relative viability ([1]; first compound 2.53 µM): 0.891
- relative viability ([1]; first compound 8 µM): 0.535
- relative viability ([2]; first compound 0.08 µM): 0.74
- relative viability ([2]; first compound 0.253 µM): 0.819
- relative viability ([2]; first compound 0.8 µM): 1.09
- relative viability ([2]; first compound 2.53 µM): 0.834
- relative viability ([2]; first compound 8 µM): 0.437
- relative viability ([3]; first compound 0.08 µM): 0.376
- relative viability ([3]; first compound 0.253 µM): 0.512
- relative viability ([3]; first compound 0.8 µM): 0.395
- relative viability ([3]; first compound 2.53 µM): 0.507
- relative viability ([3]; first compound 8 µM): 0.374
- relative viability ([4]; first compound 0.08 µM): 0.642
- relative viability ([4]; first compound 0.253 µM): 0.654
- relative viability ([4]; first compound 0.8 µM): 0.663
- relative viability ([4]; first compound 2.53 µM): 0.886
- relative viability ([4]; first compound 8 µM): 0.553

Cell Line: NCI-H1734
- relative viability ([1]; first compound 0.08 µM): 0.881
- relative viability ([1]; first compound 0.253 µM): 0.652
- relative viability ([1]; first compound 0.8 µM): 0.734
- relative viability ([1]; first compound 2.53 µM): 0.86
- relative viability ([1]; first compound 8 µM): 0.747
- relative viability ([2]; first compound 0.08 µM): 0.766
- relative viability ([2]; first compound 0.253 µM): 0.825
- relative viability ([2]; first compound 0.8 µM): 0.948
- relative viability ([2]; first compound 2.53 µM): 1.1
- relative viability ([2]; first compound 8 µM): 0.429
- relative viability ([3]; first compound 0.08 µM): 0.732
- relative viability ([3]; first compound 0.253 µM): 0.818
- relative viability ([3]; first compound 0.8 µM): 0.966
- relative viability ([3]; first compound 2.53 µM): 0.795
- relative viability ([3]; first compound 8 µM): 0.493
- relative viability ([4]; first compound 0.08 µM): 0.727
- relative viability ([4]; first compound 0.253 µM): 0.648
- relative viability ([4]; first compound 0.8 µM): 0.718
- relative viability ([4]; first compound 2.53 µM): 0.713
- relative viability ([4]; first compound 8 µM): 0.422

Cell Line: NCI-H1395
- relative viability ([1]; first compound 0.08 µM): 0.714
- relative viability ([1]; first compound 0.253 µM): 0.786
- relative viability ([1]; first compound 0.8 µM): 0.525
- relative viability ([1]; first compound 2.53 µM): 0.691
- relative viability ([1]; first compound 8 µM): 0.646
- relative viability ([2]; first compound 0.08 µM): 1.21
- relative viability ([2]; first compound 0.253 µM): 0.982
- relative viability ([2]; first compound 0.8 µM): 1.08
- relative viability ([2]; first compound 2.53 µM): 0.891
- relative viability ([2]; first compound 8 µM): 1.07
- relative viability ([3]; first compound 0.08 µM): 1.19
- relative viability ([3]; first compound 0.253 µM): 1.46
- relative viability ([3]; first compound 0.8 µM): 1.02
- relative viability ([3]; first compound 2.53 µM): 1.05
- relative viability ([3]; first compound 8 µM): 1.05
- relative viability ([4]; first compound 0.08 µM): 1.09
- relative viability ([4]; first compound 0.253 µM): 1.33
- relative viability ([4]; first compound 0.8 µM): 1.05
- relative viability ([4]; first compound 2.53 µM): 0.958
- relative viability ([4]; first compound 8 µM): 1.11

Cell Line: NCI-H1651
- relative viability ([1]; first compound 0.08 µM): 0.552
- relative viability ([1]; first compound 0.253 µM): 0.547
- relative viability ([1]; first compound 0.8 µM): 0.557
- relative viability ([1]; first compound 2.53 µM): 0.616
- relative viability ([1]; first compound 8 µM): 0.452
- relative viability ([2]; first compound 0.08 µM): 0.925
- relative viability ([2]; first compound 0.253 µM): 0.863
- relative viability ([2]; first compound 0.8 µM): 0.969
- relative viability ([2]; first compound 2.53 µM): 1.19
- relative viability ([2]; first compound 8 µM): 0.673
- relative viability ([3]; first compound 0.08 µM): 0.984
- relative viability ([3]; first compound 0.253 µM): 0.654
- relative viability ([3]; first compound 0.8 µM): 1.01
- relative viability ([3]; first compound 2.53 µM): 1.29
- relative viability ([3]; first compound 8 µM): 0.404
- relative viability ([4]; first compound 0.08 µM): 1.19
- relative viability ([4]; first compound 0.253 µM): 0.972
- relative viability ([4]; first compound 0.8 µM): 1.03
- relative viability ([4]; first compound 2.53 µM): 0.88
- relative viability ([4]; first compound 8 µM): 0.785

Cell Line: LC-2-ad
- relative viability ([1]; first compound 0.08 µM): 0.661
- relative viability ([1]; first compound 0.253 µM): 0.517
- relative viability ([1]; first compound 0.8 µM): 0.771
- relative viability ([1]; first compound 2.53 µM): 0.748
- relative viability ([1]; first compound 8 µM): 0.53
- relative viability ([2]; first compound 0.08 µM): 0.828
- relative viability ([2]; first compound 0.253 µM): 0.927
- relative viability ([2]; first compound 0.8 µM): 0.885
- relative viability ([2]; first compound 2.53 µM): 0.893
- relative viability ([2]; first compound 8 µM): 0.663
- relative viability ([3]; first compound 0.08 µM): 0.384
- relative viability ([3]; first compound 0.253 µM): 0.393
- relative viability ([3]; first compound 0.8 µM): 0.489
- relative viability ([3]; first compound 2.53 µM): 0.5
- relative viability ([3]; first compound 8 µM): 0.335
- relative viability ([4]; first compound 0.08 µM): 0.936
- relative viability ([4]; first compound 0.253 µM): 0.91
- relative viability ([4]; first compound 0.8 µM): 0.789
- relative viability ([4]; first compound 2.53 µM): 0.962
- relative viability ([4]; first compound 8 µM): 0.794

Cell Line: NCI-H460
- relative viability ([1]; first compound 0.08 µM): 0.516
- relative viability ([1]; first compound 0.253 µM): 0.352
- relative viability ([1]; first compound 0.8 µM): 1.05
- relative viability ([1]; first compound 2.53 µM): 1.22
- relative viability ([1]; first compound 8 µM): 0.261
- relative viability ([2]; first compound 0.08 µM): 0.475
- relative viability ([2]; first compound 0.253 µM): 0.729
- relative viability ([2]; first compound 0.8 µM): 0.783
- relative viability ([2]; first compound 2.53 µM): 1.13
- relative viability ([2]; first compound 8 µM): 0.435
- relative viability ([3]; first compound 0.08 µM): 0.787
- relative viability ([3]; first compound 0.253 µM): 0.957
- relative viability ([3]; first compound 0.8 µM): 1.55
- relative viability ([3]; first compound 2.53 µM): 1.56
- relative viability ([3]; first compound 8 µM): 0.0629
- relative viability ([4]; first compound 0.08 µM): 0.54
- relative viability ([4]; first compound 0.253 µM): 0.588
- relative viability ([4]; first compound 0.8 µM): 0.366
- relative viability ([4]; first compound 2.53 µM): 0.621
- relative viability ([4]; first compound 8 µM): 0.221

Cell Line: H3255
- relative viability ([1]; first compound 0.08 µM): 0.821
- relative viability ([1]; first compound 0.253 µM): 0.922
- relative viability ([1]; first compound 0.8 µM): 0.841
- relative viability ([1]; first compound 2.53 µM): 0.836
- relative viability ([1]; first compound 8 µM): 0.666
- relative viability ([2]; first compound 0.08 µM): 1
- relative viability ([2]; first compound 0.253 µM): 0.888
- relative viability ([2]; first compound 0.8 µM): 1.02
- relative viability ([2]; first compound 2.53 µM): 1.03
- relative viability ([2]; first compound 8 µM): 0.726
- relative viability ([3]; first compound 0.08 µM): 0.416
- relative viability ([3]; first compound 0.253 µM): 0.393
- relative viability ([3]; first compound 0.8 µM): 0.557
- relative viability ([3]; first compound 2.53 µM): 0.542
- relative viability ([3]; first compound 8 µM): 0.419
- relative viability ([4]; first compound 0.08 µM): 0.52
- relative viability ([4]; first compound 0.253 µM): 0.623
- relative viability ([4]; first compound 0.8 µM): 0.727
- relative viability ([4]; first compound 2.53 µM): 0.712
- relative viability ([4]; first compound 8 µM): 0.587

Cell Line: NCI-H520
- relative viability ([1]; first compound 0.08 µM): 0.729
- relative viability ([1]; first compound 0.253 µM): 0.751
- relative viability ([1]; first compound 0.8 µM): 0.743
- relative viability ([1]; first compound 2.53 µM): 0.962
- relative viability ([1]; first compound 8 µM): 0.489
- relative viability ([2]; first compound 0.08 µM): 1.13
- relative viability ([2]; first compound 0.253 µM): 0.723
- relative viability ([2]; first compound 0.8 µM): 0.902
- relative viability ([2]; first compound 2.53 µM): 0.943
- relative viability ([2]; first compound 8 µM): 0.768
- relative viability ([3]; first compound 0.08 µM): 1.04
- relative viability ([3]; first compound 0.253 µM): 0.939
- relative viability ([3]; first compound 0.8 µM): 1.21
- relative viability ([3]; first compound 2.53 µM): 1.35
- relative viability ([3]; first compound 8 µM): 0.701
- relative viability ([4]; first compound 0.08 µM): 0.906
- relative viability ([4]; first compound 0.253 µM): 0.594
- relative viability ([4]; first compound 0.8 µM): 0.777
- relative viability ([4]; first compound 2.53 µM): 1.01
- relative viability ([4]; first compound 8 µM): 0.794
